pIC50: −log10 of the molar value.
Molecular target: T1, WT human SLACK (Homo sapiens, UniProt Q5JUK3)
T1 construct: host or cells: CHO-K1
T1 sequence (Q5JUK3 1-1235 isoform Q5JUK3-3): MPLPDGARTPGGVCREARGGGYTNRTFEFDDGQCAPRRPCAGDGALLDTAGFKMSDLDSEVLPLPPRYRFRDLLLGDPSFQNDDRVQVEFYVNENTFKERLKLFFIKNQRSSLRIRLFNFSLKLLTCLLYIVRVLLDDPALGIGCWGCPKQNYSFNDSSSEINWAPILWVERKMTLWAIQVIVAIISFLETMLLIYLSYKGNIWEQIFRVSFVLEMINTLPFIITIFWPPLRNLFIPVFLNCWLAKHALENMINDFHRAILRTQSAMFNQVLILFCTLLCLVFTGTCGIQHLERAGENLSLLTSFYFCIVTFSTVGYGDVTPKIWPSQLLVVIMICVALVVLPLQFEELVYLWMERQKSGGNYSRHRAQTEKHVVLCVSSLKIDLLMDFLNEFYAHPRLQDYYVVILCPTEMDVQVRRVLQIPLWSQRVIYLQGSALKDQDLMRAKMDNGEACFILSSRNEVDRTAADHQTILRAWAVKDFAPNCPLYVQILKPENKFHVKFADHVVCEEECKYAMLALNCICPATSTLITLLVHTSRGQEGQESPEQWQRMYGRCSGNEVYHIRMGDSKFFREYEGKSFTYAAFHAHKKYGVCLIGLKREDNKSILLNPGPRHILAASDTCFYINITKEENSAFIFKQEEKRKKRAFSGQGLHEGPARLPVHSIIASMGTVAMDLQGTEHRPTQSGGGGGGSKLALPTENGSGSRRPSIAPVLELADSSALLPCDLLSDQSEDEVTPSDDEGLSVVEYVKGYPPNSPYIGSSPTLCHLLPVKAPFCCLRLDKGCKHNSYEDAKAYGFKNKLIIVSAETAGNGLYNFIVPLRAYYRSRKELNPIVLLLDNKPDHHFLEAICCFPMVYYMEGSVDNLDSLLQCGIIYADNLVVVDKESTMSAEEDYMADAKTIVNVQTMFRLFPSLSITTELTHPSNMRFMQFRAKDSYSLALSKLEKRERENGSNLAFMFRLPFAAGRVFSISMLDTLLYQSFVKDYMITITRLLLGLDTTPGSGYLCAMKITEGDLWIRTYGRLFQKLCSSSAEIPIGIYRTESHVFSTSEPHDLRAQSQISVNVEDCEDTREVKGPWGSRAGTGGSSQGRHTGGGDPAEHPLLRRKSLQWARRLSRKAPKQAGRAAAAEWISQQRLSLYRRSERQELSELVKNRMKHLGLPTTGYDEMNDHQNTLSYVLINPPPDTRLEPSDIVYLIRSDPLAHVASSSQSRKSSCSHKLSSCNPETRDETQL
Assay: Whole-cell automated patch clamp (APC) in CHO-K1 cells stably expressing WT human SLACK
Assay type: cell-based
Conditions: for pIC50: APC, CHO-K1 cells stably expressing WT human SLACK, averages (n ≥ 3); for SLACK Imax: maximum inhibition at 30 µM test compound standardized to VU0606170 (set at 100%), WT human SLACK
Description: Using concentrations ranging from 0.125 to 30 µM in half-log steps, a concentration–response relationship was generated for each new analog using our APC assay in CHO-K1 cells stably expressing WT SLACK. A minimum of three cells, i.e., replicates, were collected per concentration for each analog.
Automated patch clamp recording was performed with a SyncroPatch 768 PE system (Nanion, Munich, Germany) as previously described. Whole-cell recordings were performed at room temperature. Cells were harvested by first washing with PBS without Mg^2+ or Ca^2+ (Gibco, Billings, MT, USA) to remove cell culture medium, followed by dissociation with TryPLE (Gibco, Billings, MT, USA). Cells were then resuspended and diluted to 200,000 cells/mL in external solution. External solution contained 105 mM NaCl, 4 mM KCl, 1 mM MgCl2, 5 mM CaCl2, 10 mM HEPES, 40 mM N-Methyl-D-glucamine chloride, titrated to pH 7.4 with NaOH and osmolarity of 300 mOsm/kg; internal solution contained 70 mM NaCl, 70 mM KF, 10 mM KCl, 5 mM EGTA, 5mM HEPES, titrated to a pH 7.2 with KOH and osmolarity of 295 mOsm/kg.
The APC protocol was set as following: Cells were held at […] −80 mV for 100 ms, then a ramp protocol was performed from −100 mV to 80 mV at 0.4 mV/ms, hold the cell at −80 mV for another 100 ms, then steps were performed at −20 mV, 0 mV, +20 mV, +40 mV, and +60 mV for 100 ms of each step. Whole-cell currents were measured at 0 mV and normalized to current after external buffer addition.

Structure (SMILES) | pIC50 | Fold improvement in potency relative to 10 (WT SLACK APC IC50) | SLACK Imax
CC(C)(Oc1ccc(Cl)cc1)C(=O)Nc1cnc(Oc2c(F)cccc2F)nc1 [Analog 40] | 6.28 | ~3 fold | 98%
CN(c1ccc(C#N)cc1)c1ncc(NC(=O)C(C)(C)Oc2ccc(Cl)cc2)cn1 [Analog 66] | 6.04 | – | 95%

— article PMC11643494, “Structure–Activity Relationship Studies in a Series of 2-Aryloxy-N-(pyrimidin-5-yl)acetamide Inhibitors of SLACK Potassium Channels” (Molecules, 2024)
